Measured values: a melting point compilation (Tetko et al.; mined from patent text by program, amines drawn as free bases though some values may be those of a salt)

| Structure (SMILES) | melting point |
| --- | --- |
| CCOC(=O)C(N)Cc1c(OCC)noc1C(=O)O (racemic) | 159 to 161 °C |
| CCOc1ccc(-c2ccc3c(c2)C=C(C(=O)Nc2ccc(CCl)cc2)CCO3)cc1 | 187 to 189 °C |
| C=C(C(=O)O)c1ccc(Cl)cc1 | 110 °C |
| CCOC(=O)CNC(=O)N(N(CCCl)S(C)(=O)=O)S(C)(=O)=O | 121 to 122 °C |
| CC(C)P1(=O)c2ccccc2CN1Cc1ccccc1 (stereo unspecified) | 145 to 147 °C |
| CCc1nn(-c2c(Cl)cc(C(F)(F)F)cc2Cl)c(Cl)c1-c1nc(C#N)c(C#N)[nH]1 | 75 to 78 °C |
| c1c[nH]c(-c2cnco2)c1 | 57 to 58 °C |
| N#Cc1ccc2cc(CCCc3cc4ccc(C#N)cc4o3)oc2c1 | 199 to 201 °C |
| COc1ccc(CC#N)cc1C(=O)NCc1ccc(C(F)(F)F)cc1 | 124 to 125 °C |
| O=C1C2C3CCC(C3)C2C(=O)C1[N+](=O)[O-] (stereo unspecified) | 167 °C |
| COCCOc1cc(N)c(Cl)cc1C(=O)NCC12CCCN(CCC1)C2 | 154 to 156 °C |
| CN(Cc1cccc2c1C(=O)N(C1CCC(=O)NC1=O)C2=O)C(=O)NC(C)(C)C (stereo unspecified) | 188 to 190 °C |
| CC(C)(C)c1nc2cc(CC#N)ccc2s1 | 50 to 52 °C |
| CCCCCCCCCCCCCCCC1Cc2ccc(C(=O)O)cc2N1 (racemic) | 119 to 122 °C |
| O=c1[nH]ncc2cc(Cl)ccc12 | 272 to 273 °C |
| CCOc1nn(-c2cc(C(F)(F)F)ccn2)cc1CCCO | 73 to 74 °C |
| O=C(NC(=O)N(SC(Cl)(Cl)Cl)c1ccc(Oc2ccc(C(F)(F)F)cc2Cl)cc1)c1ccccc1Cl | 68 to 71 °C |
| COc1cccc([C@H]2O[C@H](CC(=O)NCCc3oc(C(=O)O)cc3C(=O)O)C(=O)N(CC(C)(C)CO)c3ccc(Cl)cc32)c1OC | 155 to 157 °C |
| C[C@H]1Oc2cccc(F)c2N(C)C(=O)[C@H]1NC(=O)OC(C)(C)C | 130 to 138 °C |
| O=CC(=Cc1ccccc1Br)C(C=O)=Cc1ccccc1Br | 194 to 195 °C |
| COC(=O)c1cc(C(=O)O)nc2cc(Cl)cc(Cl)c12 | 169 to 171 °C |
| OC12CC3CC(C1)CC(NC(c1ccccc1)(c1ccccc1)c1ccccc1)(C3)C2 | 184 to 186 °C |
| Nc1cc(C=O)nc(C2CCC2)c1F | 134 to 135 °C |
| COc1ccc(-c2cncc(OC3SCC(O)C(O)C3O)c2)cn1 (stereo unspecified) | 189 °C |
| CCCCn1c(=O)c2[nH]c(Cl)nc2n(CCCC)c1=O | 152 °C |
| CCn1cc(O)c(=O)cc1CO | 143 to 145 °C |
| c1ccc(C(CCOc2ccc(Cc3nnn[nH]3)cc2)(c2ccccc2)c2ccccc2)cc1 | 187 to 189 °C |
| Cn1nc(Cc2ccc(O)c(Cl)c2Cl)c(Cl)c1OC(F)F | 127 to 128 °C |
| CCOC(=O)c1cc(-c2cccc(C(F)(F)F)c2)c(OCCO)c(-c2cccc(C(F)(F)F)c2)c1 | 154 to 158 °C |
| COc1ccc(NC(=O)c2csc(Nc3ccc(C)cn3)n2)cc1OC | 212 to 214 °C |

Continued, values first:

| melting point | Structure (SMILES) |
| --- | --- |
| 70 to 73 °C | CC(C)=CCCOc1c(-c2ccc(S(N)(=O)=O)cc2)cnn(-c2ccc(F)c(F)c2)c1=O |
| 275 to 276 °C | O=C(O)c1ccc(-c2nc(-c3ccccc3)co2)cc1 |
| 132 to 134 °C | CN1CCC2(CC1)c1ccccc1Cc1ccccc12 |
| 92 °C | Cc1ccc(S(=O)(=O)OCC2(F)CCN(C(=O)c3ccc(F)c(Cl)c3)CC2)cc1 |
| 200 to 205 °C | O=C(O)c1ccccc1CN1CCc2sccc2C1 |
| 131 to 133 °C | COC(=O)C(=C/c1ccccc1)/C(=C\c1cc(OC)c(OC)c(OC)c1)C(=O)O |
| 70 to 74 °C | CCOC(=O)CCC(=O)Oc1cccc(-c2cn3c(n2)sc2ccccc23)c1 |
| 196 to 198 °C | CC(C)(O)Cc1c2c(nn1CCO)c(N)nc1ccccc12 |
| 235 °C | CC(=O)N1CCc2sc(C(=O)CCCN3CCC(c4noc5cc(F)ccc45)CC3)cc2C1 |
| 184 to 185 °C | COC(=O)NS(=O)(=O)c1ccc(NC(=O)COc2ccc(Cl)cc2C)cc1 |
| 123 to 124 °C | CCCCOc1cc(CCC(=O)O)n(Cc2ccc(Cl)cc2Cl)n1 |
| 123 to 124 °C | COc1ccc(CC(=O)NCCc2ccccc2)cc1OC |
| 145 to 146 °C | CCCc1c(C(=O)NCc2ccc3cc(OCC(=O)OC)ccc3c2)cnn1-c1ccccc1 |
| 51 to 53 °C | O=Cc1cccc(OCCc2coc(-c3ccccc3)n2)c1 |
| 44 to 46 °C | CC(C)(c1ccccc1)n1nnc(-c2ccccc2)n1 |
| 80 to 102 °C | Clc1ccccc1C(Oc1ccccc1)C1CNCCO1 (stereo unspecified) |
| 135 to 136 °C | Cc1ccccc1N1CCN(Cc2n[nH]c3ccccc23)CC1 |
| 221 to 223 °C | CCn1cc(C(=O)O)c(=O)c2c(F)c(F)c(N3CCN(C)CC3)c(F)c21 |
| 148 to 150 °C | CC1=C(C(=O)OCCN(C)Cc2ccccc2)C(c2ccccc2C(F)(F)F)c2c(ccnc2OCC(C)C)N1 (stereo unspecified) |
| 188 to 190 °C | CC(C)(C)[Si](C)(C)Oc1ccc(C(=O)Oc2ccc(C(=O)O)cn2)cc1C12CC3CC(CC(C3)C1)C2 |
| 214 to 215 °C | Cc1c(C(=O)O)ccc(S(C)(=O)=O)c1-c1ccc(S(C)(=O)=O)cc1 |

| melting point | Structure (SMILES) |
| --- | --- |
| 196 to 198 °C | CN(C)c1nc2cc(NC(=O)c3c(C(=O)N4CCOCC4)cnn3C)ccn2n1 |
| 97 to 99 °C | CCOC(=O)C1(C(=O)OCC)NC(=O)CC1c1ccccc1 (stereo unspecified) |
| 112 °C | CCOC(=O)C1=C(C(=O)OCC)C(c2cccc3ccccc23)C(C(=O)OCC)=C(C)N1 (stereo unspecified) |
| 74 to 76 °C | CCOC(=O)Cc1ccc(C(=O)c2ccc(Cl)cc2)n1C |
| 166 to 168 °C | CCc1nn(C2CCC2)c2cc(C(=O)Nc3c(Cl)cncc3Cl)ccc12 |
| 234 to 236 °C | O=C1Cc2c(-c3ccccc3)ccc(Cl)c2N1 |
| 137 to 139 °C | CC(C)c1ccc(C(=O)C2CCc3ccccc3C2)c(C(C)C)c1OS(N)(=O)=O (stereo unspecified) |
| 156 to 157 °C | O=C1CNC(=O)N1Cc1ccc2ccn(C3CCN(CCc4ccc(F)cc4)CC3)c2c1 |
| > 300 °C | O=C(O)c1cnc(-c2nnn[nH]2)cc1-c1ccccc1 |
| 198 °C | CCOC(=O)C1=C(C)Nc2nc(N3CCOCC3)nc(N3CCOCC3)c2C1c1cccc2ccccc12 (stereo unspecified) |
| > 250 °C | CCc1nn2c(N)cc(N3CCN(C)CC3)nc2c1S(=O)(=O)c1ccccc1 |
| 140 °C | CC#CCOc1ccc(S(=O)(=O)C(C(=O)NO)C2CCNCC2)cc1 (stereo unspecified) |
| 133 to 135 °C | Cc1c(NC(=O)c2ccc(-c3ccccc3F)cc2)ccc2cc(CN3CCCC3)cnc12 |
| 275 to 276 °C | Cc1nn(C)c2ncc(C(=O)O)c(NCS(=O)(=O)c3ccc(F)cc3)c12 |
| 91 to 92 °C | CC(C)NC(=O)C[C@@H]1CCCNc2ccccc21 |
| 191 to 193 °C | Cc1ccc(-c2ccc(C(=O)Nc3cc4ncc(CN5CCCC5)cc4cc3C)cc2)cc1 |
| 95 to 98 °C | Clc1cc(-c2ccccc2)ncn1 |
| 145 °C | CC(C)(C)OC(=O)CN(C(=O)CN1C(=O)c2ccccc2C1=O)c1ccccc1Oc1ccccc1 |
| 150 to 153 °C | COC(COC(=O)C1=C(C)NC2=C(C(=O)CNC2)C1c1cccc(Cl)c1Cl)c1ccccc1 (stereo unspecified) |
| 167 to 168 °C | COC(=O)CC(O)/C=C/c1c(-c2ccc(F)cc2)n(C(C)C)c(=O)c2ccccc12 (stereo unspecified) |
